Molecular target: T1, CFTR del Ex24 (Homo sapiens, UniProt P13569, DEL1292-1321)
T1 construct: expressed in transfected cells; host or cells: HEK 293 cells, transient transfection with Lipofectamine 2000
Assay: FLIPR membrane potential assay of CFTR function
Format: cell-based
Conditions: HEK 293 cells transiently transfected with CFTR del Ex24; activated by forskolin 10 uM; FIG. 1B
Experimental: HEK cells were transiently transfected with a construct bearing a CFTR transcript having exon 24 completely deleted from it (CFTR del Ex24). Transfection was carried out using Lipofectamine 2000 transfection reagent (Invitrogen) according to the lipofectamine 2000 reagent protocol using the following lipofectamine amounts: 96 well—0.15 μl, 6 well—3 μl, 10 mm plate—15 μl. HEK cells transfected with the CFTR del Ex24 construct were grown in 96-well (black, flat bottom; corning) plates. 48 hr post-transfection, CFTR channel function was analyzed using the FLIPR membrane potential assay as previously described (Molinski et al., 2015). Briefly, the cells were loaded with blue membrane potential dye (Molecular Devices), which can detect changes in transmembrane potential. The plate was then read in a fluorescence plate reader (BioTek Synergy H1) for baseline levels followed by CFTR stimulation using the cAMP agonist forskolin (10 μM; Sigma), DMSO vehicle was used as a negative control. CFTR-mediated depolarization of the plasma membrane was detected as an increase in fluorescence and hyperpolarization (or repolarization) as a decrease. […] FLIPR™ (Fluorescence Imaging Plate Reader) is a functional system that allows measuring changes in membrane potential by a fluorescent indicator. […]

T1 sequence (P13569 with tags, fused parts or gaps DEL1292-1321): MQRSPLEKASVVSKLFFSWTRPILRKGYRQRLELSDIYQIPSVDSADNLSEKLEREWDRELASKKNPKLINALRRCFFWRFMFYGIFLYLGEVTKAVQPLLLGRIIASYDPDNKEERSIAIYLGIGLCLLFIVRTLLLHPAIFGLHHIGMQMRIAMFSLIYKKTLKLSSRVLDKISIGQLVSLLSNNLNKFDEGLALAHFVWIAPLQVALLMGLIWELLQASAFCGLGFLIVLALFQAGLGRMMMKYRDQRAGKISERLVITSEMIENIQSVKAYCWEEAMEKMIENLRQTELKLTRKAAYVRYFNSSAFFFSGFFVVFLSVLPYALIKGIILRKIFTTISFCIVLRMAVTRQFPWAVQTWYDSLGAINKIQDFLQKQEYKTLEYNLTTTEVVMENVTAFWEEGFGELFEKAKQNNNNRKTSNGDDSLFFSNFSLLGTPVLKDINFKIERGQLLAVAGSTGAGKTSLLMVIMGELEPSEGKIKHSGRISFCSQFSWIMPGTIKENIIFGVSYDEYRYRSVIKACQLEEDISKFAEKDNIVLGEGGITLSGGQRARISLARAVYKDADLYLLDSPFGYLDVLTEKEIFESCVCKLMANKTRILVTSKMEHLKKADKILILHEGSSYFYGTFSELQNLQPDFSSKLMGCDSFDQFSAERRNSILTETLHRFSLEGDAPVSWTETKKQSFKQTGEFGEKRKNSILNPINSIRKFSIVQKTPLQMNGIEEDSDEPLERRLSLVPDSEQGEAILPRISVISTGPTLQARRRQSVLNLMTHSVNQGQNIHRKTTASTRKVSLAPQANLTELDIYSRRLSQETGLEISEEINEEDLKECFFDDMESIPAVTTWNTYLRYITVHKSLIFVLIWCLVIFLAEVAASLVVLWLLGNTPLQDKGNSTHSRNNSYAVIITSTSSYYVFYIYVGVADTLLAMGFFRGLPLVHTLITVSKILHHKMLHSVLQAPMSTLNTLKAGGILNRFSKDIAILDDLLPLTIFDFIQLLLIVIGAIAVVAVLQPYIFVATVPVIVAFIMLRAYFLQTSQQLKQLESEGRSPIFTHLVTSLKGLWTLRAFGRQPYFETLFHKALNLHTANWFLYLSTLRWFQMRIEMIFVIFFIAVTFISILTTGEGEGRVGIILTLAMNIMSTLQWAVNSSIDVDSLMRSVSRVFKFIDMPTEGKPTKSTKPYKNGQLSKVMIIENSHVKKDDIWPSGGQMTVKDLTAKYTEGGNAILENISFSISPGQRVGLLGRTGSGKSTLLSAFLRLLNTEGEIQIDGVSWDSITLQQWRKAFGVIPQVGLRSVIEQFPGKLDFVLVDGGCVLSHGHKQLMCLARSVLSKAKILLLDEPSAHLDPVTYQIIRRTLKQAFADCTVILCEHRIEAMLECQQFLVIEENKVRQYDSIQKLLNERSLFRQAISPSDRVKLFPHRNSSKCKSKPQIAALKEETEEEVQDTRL

CC(C)(C)c1cc(C(C)(C)C)c(NC(=O)c2c[nH]c3ccccc3c2=O)cc1O [VX-770, N-(2,4-Di-tert-butyl-5-hydroxyphenyl)-4-oxo-1,4-dihydroquinoline-3-carboxamide]
channel activation: 50 % of WT

Source: patent US20220064647A1, “COMPOSITIONS AND METHODS FOR TREATING CYSTIC FIBROSIS” (SpliSense Ltd., priority 2019, published 2022)
